These results are taken from patent publication US5639786A (priority 1994, dated 1997).

Each structure is given as a SMILES string. In brackets after ≈: the same amount, converted by molar mass.

The subject of assay [1] is Vibrio cholerae neuraminidase. As to conditions: Meindl and Tuppy 1969; cited from earlier work.
In assay [2] the test system is influenza A/Singapore/1/57 (H2N2). In words: microbe, parasite or virus in culture. Format: cell-based. The following applies: H2N2, MDCK, 72 h, read-out: I50 Plaque Assay (μg/ml) Flu A.
For assay [3], the system named is influenza B/Victoria/102/85. The assay can be described thus: Inhibition of influenza virus replication in vitro, plaque reduction in MDCK cells (Flu B). Format: cell-based. The following applies: 72 h, influenza B/Victoria/102/85, MDCK cells, 3 days, read-out: I50 Plaque Assay (μg/ml) Flu B.
Assay [4] deals with N2 influenza neuraminidase (Influenza A virus (A/Aichi/2/1968(H3N2)), UniProt Q75VQ4). As to conditions: read-out: NA1 (μg/ml), virion X31, MUN substrate, pH 6.5, 15 minutes at 37° C.
The subject of assay [5] is influenza and parainfluenza viruses. The following applies: Palese et al., Virology 1974; cited from earlier work.
For assay [6] the following is noted: prior art; cited from earlier work.

N2 influenza neuraminidase (Influenza A virus (A/Aichi/2/1968(H3N2)), UniProt Q75VQ4), sequence (Q75VQ4 whole entry, looked up): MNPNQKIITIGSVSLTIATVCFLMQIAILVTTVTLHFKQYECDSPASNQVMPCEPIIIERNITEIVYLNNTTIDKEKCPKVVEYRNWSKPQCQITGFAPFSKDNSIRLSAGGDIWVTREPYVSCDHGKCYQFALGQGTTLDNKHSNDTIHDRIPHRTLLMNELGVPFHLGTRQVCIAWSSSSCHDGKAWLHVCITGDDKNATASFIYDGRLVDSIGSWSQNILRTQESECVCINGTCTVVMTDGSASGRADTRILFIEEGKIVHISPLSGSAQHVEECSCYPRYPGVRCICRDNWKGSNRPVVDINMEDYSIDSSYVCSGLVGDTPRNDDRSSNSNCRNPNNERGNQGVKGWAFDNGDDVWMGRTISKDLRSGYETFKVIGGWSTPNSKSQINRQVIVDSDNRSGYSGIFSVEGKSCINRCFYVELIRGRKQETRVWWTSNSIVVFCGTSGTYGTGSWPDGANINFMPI

With `CC(=O)N[C@H]1[C@H]([C@H](O)[C@H](O)CO)OC(C(=O)O)C[C@@H]1O` (some centres unmarked) [2-deoxy-N-acetylneuraminic acid], in assay [1], the “inhibition of Vibrio cholerae neuraminidase” value was “did not inhibit”.
Turning to `CC(=O)N[C@H]1[C@H]([C@H](O)[C@H](O)CO)OC(C(=O)O)=C[C@@H]1NC(=N)NN` [Example 1, 5-(Acetylamino)-4-[[amino(aminoimino)methyl]amino]-2,6-anhydro-3,4,5-trideoxy-D-glycero-D-galacto-non-2-enonic acid], the values for the IC50 in assay [2], in assay [3] and in assay [4] were 2.9 µg/mL (≈ 8.35 µM), 3 µg/mL (≈ 8.64 µM) and 3740 nM, respectively.
In the case of `CC(=O)N[C@H]1[C@H]([C@H](O)[C@H](O)CO)OC(C(=O)O)=C[C@@H]1NC(=N)NO` [Example 2, 5-(Acetylamino)-4-[[amino(hydroxyimino)methyl]amino]-2,6-anhydro-3,4,5-trideoxy-D-glycero-D-galacto-non-2-enonic acid], the IC50 is 0.1 µg/mL (≈ 0.287 µM) in assay [2], less than 0.1 µg/mL in assay [3] and 1720 nM in assay [4].
Take `CC(=O)N[C@H]1[C@H]([C@H](O)[C@H](O)CO)OC(C(=O)O)=C[C@@H]1NC(N)=N[N+](=O)[O-]` [Example 4, 5-(Acetylamino)-4-[[amino(nitroimino)methyl]amino]-2,6-anhydro-3,4,5-trideoxy-D-glycero-D-galacto-2-enonic acid]: the IC50 in assay [3] was found to be 24 µg/mL (≈ 63.6 µM).
Same read-out and setting: in the case of `CCOC(=O)N=C(N)N[C@H]1C=C(C(=O)O)O[C@@H]([C@H](O)[C@H](O)CO)[C@@H]1NC(C)=O` [Example 5] it was 0.6 µg/mL (≈ 1.48 µM).
`O=C(O)C1=CC(O)C(NC(=O)C(F)(F)F)C(C(O)C(O)CO)O1` (centres unmarked) [FANA, 2-deoxy-2,3-dehydro-N-trifluoroacetyl-neuraminic acid]: the “inhibition of multi-cycle replication of influenza and parainfluenza viruses in vitro” value in assay [5] was “inhibits multi-cycle replication”. Further, the “antiviral activity in vivo” value in assay [6] was “inactive in vivo”.
